In publication PMC6689897, “Drugging an undruggable pocket on KRAS” (Proceedings of the National Academy of Sciences of the …, 2019):
Values joined by “and” are separate entries in the source; they are usually repeats but may differ in a detail not shown here. Identical values can stand only once. Like-named read-outs stand apart in the source and are kept apart here.

Assays:
Assay in all cases: ITC
Format in all cases: binding
GDP-NRASwt = GDP-NRASwt (Homo sapiens, UniProt P01111, C118S); settings: for Kd: 25°C
Experimental: (§1) 80 difference spectrum. Mixtures of four fragments (each at 250 µM) were incubated in 25
(§2) 82 a mixture of GCP-KRASG12D and GDP-KRASG12V (each 4 µM). Binders were identified
(§3) 83 by comparing pre-recorded reference spectra with the STD difference spectrum.
(§4) 84 Deconvolution and confirmation of primary FBS hits obtained from STD-NMR and
(§5) 85 MST was performed using 2D 1H/15N TROSY NMR experiments(2) collected on a
(§6) 86 Bruker Avance III 600 MHz spectrometer equipped with a 5 mm z-gradient TCI cryo-
(§7) 87 probe. Samples were prepared directly before data acquisition using a Tecan Freedom
(§8) 88 Evo pipetting system and delivered by a Bruker Sample Rail to the magnet. Each sample
(§9) 89 contained either 50 µM 15N labeled GDP-KRASG12D or GCP-KRASG12D in 25 mM Tris-
(§10) 90 d11, 100 mM NaCl, 2 mM MgCl2, 0.5 mM TCEP pH 7.4 and 8% (v/v) D2O. Proteins
(§11) 91 were incubated with 500 µM fragment in a 2.5 mm NMR tube at 298K and 1%
(§12) 92 d6DMSO. Spectra were recorded with 32 transients and 64 data points in the indirect
(§13) 93 dimension. Processing and analysis were accomplished with Topspin 3.0 (Bruker
(§14) 94 BioSpin). Binders were identified by manual comparison of spectra in the presence of a
(§15) 95 fragment and the respective reference spectrum. All confirmed binders to 15N labeled
(§16) 96 GDP-KRASG12D show also chemical shift perturbations in the presence of 15N labeled
(§17) 97 GDP-KRASG12V and are therefore non-selective.
(§18) 98 Measurement of dissociation constants KD for the compounds synthesized. NMR
(§19) 99 was initially the only method that could provide K Ds for the weakly binding molecules to
(§20) 100 support compound optimization. 1H/15N SoFast HMQC experiments(3) were recorded in
(§21) 101 3mm NMR tubes (170µL filling) at a protein concentration of 70-100µM. Spectra were
(§22) 102 recorded on a Avance III 700MHz spectrometer equipped with a cryogenically cooled
(§23) 103 5mm TCI probe and 48 scans, 128 f1 increments and 2k data points in f2. Total
(§24) 104 acquisition time was 22 minutes. 4 – 6 titration points were performed w ith individual
(§25) 105 samples for each titration point made from 50mM DMSO -d6 stock solutions. Total
(§26) 106 DMSO-d6 concentration was kept constant by backfilling every sample to a total of 4%
(§27) 107 DMSO. KDs were calculated from the differences in chemical shift induced by t he small
(§28) 108 molecules upon interacting with the protein. Average chemical shifts from the 1H and 15N
(§29) 109 dimension were calculated according to the following equation:
(§30) 110 ∆δobs = √[δH2 + (α ∙δN)2] with α set to 0.14
(§31) 111 The Δδobs values at the respective ligand concentrations and the total concentration
(§32) 112 of protein allow a fit to the KD value of the ligand as long as it is binding under fast
(§33) 113 exchange conditions as was the case for most of the compounds tested.(4) Usually Δδobs
(§34) 115 following equation was used to determine the individual KDs:
(§35) 116 ∆δobs = ∆δmax [([P]t + [L]t + KD) − [([P]t + [L]t + KD)2 − 4([P]t[L]t)]1/2]/2[P]t
(§36) 119 Calorimetric experiments were performed on a Microcal PEAQ-ITC calorimeter
(§37) 120 (MicroCalTM, LLC Northampton, MA). Protein solutions were measured in 20 mM
(§38) 121 HEPES, 150 mM NaCl, 3% DMSO, pH 7.5. All measurements were carried out at 25°C.
(§39) 122 Titrations were performed in inverse mode. The cell was loaded with compound solutions
(§40) 123 in the range of 10 to 100 µM. All injections were performed using an initial injection of
(§41) 124 0.5 μL followed by 19 injections of 2 μL of protein in the range of 130-500 µM. The data
(§42) 125 were analyzed with the MicroCal PEAQ-ITC analysis software package. The first data
(§43) 126 point was excluded from the analysis. Thermodynamic parameters were calculated (ΔG =
(§44) 127 ΔH - TΔS = -RTlnKB, where ΔG, ΔH and ΔS are the changes in free energy, enthalpy and
(§45) 128 entropy of binding, respectively).
(§46) 130 Protein purification, nucleotide exchange and crystallization
(§47) 131 The KRAS construct, based on uniprot identifier P01116 -2 (KRAS4-B) amino acids
(§48) 134 G12V) were expressed with an N-terminal His6-tag followed by a TEV (tobacco etch

GCP-NRASwt = GCP-NRASwt (Homo sapiens, UniProt P01111, C118S); settings: 25°C
Experimental: as §1, §2, §3, §4, §5, §6, §7, §8, §9, §10, §11, §12, §13, §14, §15, §16, §17, §18, §19, §20, §21, §22, §23, §24, §25, §26, §27, §28, §29, §30, §31, §32, §33, §34, §35, §36, §37, §38, §39, §40, §41, §42, §43, §44, §45, §46, §47, §48

GCP-HRASwt = GCP-HRASwt (Homo sapiens, UniProt P01112); settings: 25°C
Experimental: as §1, §2, §3, §4, §5, §6, §7, §8, §9, §10, §11, §12, §13, §14, §15, §16, §17, §18, §19, §20, §21, §22, §23, §24, §25, §26, §27, §28, §29, §30, §31, §32, §33, §34, §35, §36, §37, §38, §39, §40, §41, §42, §43, §44, §45, §46, §47, §48

GDP-HRASwt = GDP-HRASwt (Homo sapiens, UniProt P01112); settings: 25°C
Experimental: as §1, §2, §3, §4, §5, §6, §7, §8, §9, §10, §11, §12, §13, §14, §15, §16, §17, §18, §19, §20, §21, §22, §23, §24, §25, §26, §27, §28, §29, §30, §31, §32, §33, §34, §35, §36, §37, §38, §39, §40, §41, §42, §43, §44, §45, §46, §47, §48

GDP-KRASwt = GDP-KRASwt (Homo sapiens, UniProt P01116); settings: 25°C
Experimental: as §1, §2, §3, §4, §5, §6, §7, §8, §9, §10, §11, §12, §13, §14, §15, §16, §17, §18, §19, §20, §21, §22, §23, §24, §25, §26, §27, §28, §29, §30, §31, §32, §33, §34, §35, §36, §37, §38, §39, §40, §41, §42, §43, §44, §45, §46, §47, §48

GDP-KRASG12D = GDP-KRASG12D (Homo sapiens, UniProt P01116, G12D); settings: 25°C
Experimental: as §1, §2, §3, §4, §5, §6, §7, §8, §9, §10, §11, §12, §13, §14, §15, §16, §17, §18, §19, §20, §21, §22, §23, §24, §25, §26, §27, §28, §29, §30, §31, §32, §33, §34, §35, §36, §37, §38, §39, §40, §41, §42, §43, §44, §45, §46, §47, §48

GCP-KRASG12D = GCP-KRASG12D (Homo sapiens, UniProt P01116, G12D)
Experimental: as §1, §2, §3, §4, §5, §6, §7, §8, §9, §10, §11, §12, §13, §14, §15, §16, §17, §18, §19, §20, §21, §22, §23, §24, §25, §26, §27, §28, §29, §30, §31, §32, §33, §34, §35, §36, §37, §38, §39, §40, §41, §42, §43, §44, §45, §46, §47, §48

GCP-KRASwt = GCP-KRASwt (Homo sapiens, UniProt P01116); settings: for Kd: 25°C
Experimental: as §1, §2, §3, §4, §5, §6, §7, §8, §9, §10, §11, §12, §13, §14, §15, §16, §17, §18, §19, §20, §21, §22, §23, §24, §25, §26, §27, §28, §29, §30, §31, §32, §33, §34, §35, §36, §37, §38, §39, §40, §41, §42, §43, §44, §45, §46, §47, §48

[1] = 25°C, read-out: KD(ITC) GCP-KRASG12D

Sequence of GDP-NRASwt (P01111 1-172 C118S): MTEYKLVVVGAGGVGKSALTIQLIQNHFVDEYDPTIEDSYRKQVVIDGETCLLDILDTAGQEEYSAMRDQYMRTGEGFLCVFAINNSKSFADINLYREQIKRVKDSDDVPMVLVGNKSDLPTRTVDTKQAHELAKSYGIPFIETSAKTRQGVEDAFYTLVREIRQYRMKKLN
Sequence of GCP-KRASwt (P01116 1-169 isoform P01116-2): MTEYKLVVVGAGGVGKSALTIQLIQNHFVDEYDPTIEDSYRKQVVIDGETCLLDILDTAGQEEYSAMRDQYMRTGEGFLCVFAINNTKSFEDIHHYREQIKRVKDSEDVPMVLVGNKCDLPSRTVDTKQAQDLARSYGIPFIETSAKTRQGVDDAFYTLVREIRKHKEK
Sequence of GCP-KRASG12D (P01116 1-169 isoform P01116-2 G12D): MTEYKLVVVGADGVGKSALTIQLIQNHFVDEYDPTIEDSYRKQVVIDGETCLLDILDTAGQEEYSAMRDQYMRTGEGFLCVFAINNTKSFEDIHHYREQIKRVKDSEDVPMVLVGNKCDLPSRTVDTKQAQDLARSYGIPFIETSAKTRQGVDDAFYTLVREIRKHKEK
Sequence of GCP-NRASwt (P01111 1-172 C118S): as the sequence (P01111 1-172 C118S) above
Sequence of GDP-KRASwt (P01116 1-169 isoform P01116-2): as the sequence (P01116 1-169 isoform P01116-2) above
Sequence of GDP-KRASG12D (P01116 1-169 isoform P01116-2 G12D): as the sequence (P01116 1-169 isoform P01116-2 G12D) above
Sequence of GCP-HRASwt (P01112 1-166): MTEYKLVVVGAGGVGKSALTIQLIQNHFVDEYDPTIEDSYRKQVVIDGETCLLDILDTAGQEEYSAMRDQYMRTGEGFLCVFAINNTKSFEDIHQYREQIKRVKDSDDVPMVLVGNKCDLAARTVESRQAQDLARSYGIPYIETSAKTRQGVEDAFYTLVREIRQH
Sequence of GDP-HRASwt (P01112 1-166): as above

| Structure (SMILES) | selectivity window to inactive NRAS^wt (GDP-NRASwt) | Kd (GDP-NRASwt) | Kd (GCP-NRASwt) | Kd (GCP-HRASwt) | Kd (GDP-HRASwt) | Kd (GDP-KRASwt) | Kd (GDP-KRASG12D) | Kd (GCP-KRASG12D; [1]) | Kd (GCP-KRASG12D; read-out: KD GTP-KRAS^G12D as measured by ITC) | selectivity of binding to GCP-KRAS^wt (active KRAS^wt) (GCP-KRASwt) | Kd (GCP-KRASwt) |
| --- | --- | --- | --- | --- | --- | --- | --- | --- | --- | --- | --- |
| Cn1cnc(Cn2ccc3ccc(CNCc4[nH]c5ccccc5c4[C@H]4NC(=O)c5ccc(O)cc54)cc32)c1 [Compound 1] | 5- to 10 fold | 8.3 µM | 1.3 µM | 0.57 µM | 2.5 µM | 1.1 µM | 2 µM | 0.74 µM | 0.75 µM | 5- to 10 fold and 10 fold | 7.5 µM |
| CN(C)Cc1[nH]c2ccccc2c1[C@H]1NC(=O)c2ccc(O)cc21 [Compound 18] |  | 33 µM | 33 µM | 6.7 µM | 54 µM | 15 µM | 29 µM | 22 µM and 20 µM and 20.4 µM |  |  | 49 µM |
